The results in this text go back to US9566363B2, “Microbicidal composite material” (priority 2013, dated 2017).

Like-named read-outs stand apart in the source and are kept apart here.

Common to all, as to assay type: cell-based
Assay [1] concerns P. aeruginosa. The assay is described as follows: Bio film disruption assay (crystal violet, OD 570 nm). As to conditions: Pseudomonas aeruginosa, overnight grown culture, 24 hours, 15 mm disc, Ciprofloxacin 1 ug/ml, read-out: % Inhibition, Percentage Effect in Bio film disruption assay. As for the experimental part:
(§1) 15 millimeters (mm) Discs of the microbicidal composite material were cut and placed into 24 well plates containing approximately 10^8 CFU/ml in Tryptic Soy Broth (TSB) of P. aeruginosa and S. aureus respectively and incubated at 37±1° C. for the Bio film Prevention assay. Similarly, 15 millimeter (mm) Discs of the microbicidal composite material were cut and placed into 24 well plates containing overnight grown culture of P. aeruginosa and S. aureus respectively in TSB and further incubated for 24 hours at 37±1° C. for the disruption assay.
(§2) Further, plain filter paper discs were placed in culture control (C) wells with approximately 10^8 CFU/ml of the above bacteria in Tryptic Soy Broth (TSB) for both the Prevention and Disruption assay. After incubation, the contents were removed and washed four times with Phosphate Buffer saline (pH 7.2). A 500 μl of 0.1% crystal violet stain was added to each well and incubated for 20 minutes at room temperature, washed, and dried. Subsequently, 500 μl of ethanol supplemented with 2% acetic acid was added to each well for 30 min. The Optical Density (OD) of stained adherent Bio film was obtained by using a Tecan plate reader at 570 nm wavelength. Percentage inhibitions in the respective assays were calculated in comparison to the control.

For assay [2], the system named is S. aureus. Described as above. As to conditions: Staphylococcus aureus, overnight grown culture, 24 hours, 15 mm disc, Ciprofloxacin 1 ug/ml, read-out: % Inhibition, Percentage Effect in Bio film disruption assay. As to the method: as §1, §2
In assay [3] the test system is E. coli. Kind of assay: Residual microbes on ZOI disc after transfer to Nutrient broth. As for the experimental part: (§3) After 24 hours, the discs were transferred to Nutrient broth which was then incubated at 37±1° C. for another 24 hours. The broth contents were placed on Nutrient agar plates to measure the residual percentage of microbes present on the disc as a result of remaining on a lawn of bacteria overnight. Percentage survival was calculated as [number of CFU/ml in test substance/number of CFU/ml in control substance]. The killing percentage was calculated as 100-residual percentage. The results are tabulates as under Table-6.

For assay [4], the system named is C. albicans. The assay is described as above. As to the method:
as §3

For assay [5], the system named is P. aeruginosa. Described as above. As for the experimental part: as §3
In assay [6] the test system is S. aureus. Described as above. As for the experimental part:
as §3

Assay [7] concerns P. aeruginosa. The assay is described as follows: Bio film prevention assay (crystal violet, OD 570 nm). As to conditions: Pseudomonas aeruginosa, 15 mm disc, Ciprofloxacin 1 ug/ml, versus control, read-out: % Inhibition, Percentage Effect in Bio film prevention assay. As for the experimental part: as §1, §2
The test system of assay [8] is S. aureus. The description is as above. As to conditions: Staphylococcus aureus, 15 mm disc, Ciprofloxacin 1 ug/ml, versus control, read-out: % Inhibition, Percentage Effect in Bio film prevention assay. As for the experimental part:
as §1, §2

Assay [9] concerns P. aeruginosa (ATCC 9027). The assay is described as follows: Zone of inhibition study (disc on agar plate). As to conditions: radius around 12 mm disc, 24 hours at 37±1° C., triplicates. As for the experimental part: (§4) The microbicidal composite material was tested in triplicates against E. coli (ATCC25922), S. aureus (ATCC 25923), P. aeruginosa (ATCC 9027) and C. albicans (ATCC 90028). The test material was cut as a 12 mm diameter disc and placed on 90 mm agar plates spread with 100 μl of approximately 10^8 CFU/ml of each bacterial strain and incubated at 37±1° C. for 24 hours. For a negative control, a filter paper disc containing no antibiotic was used. The zone of inhibition (Radius in mm) around the discs was measured using a transparent ruler. The results of this test are tabulated as under Table-5.

Assay [10] concerns S. aureus (ATCC 25923). The assay is described as follows: Zone of inhibition study (disc on agar plate). As to conditions: radius around 12 mm disc, 24 hours at 37±1° C., triplicates. As for the experimental part: as §4
In assay [11] the test system is E. coli (ATCC25922). The assay is described as follows: Zone of inhibition study (disc on agar plate). As to conditions: radius around 12 mm disc, 24 hours at 37±1° C., triplicates, Ciprofloxacin 1 μg/Disc. As for the experimental part: as §4
The test system of assay [12] is P. aeruginosa (ATCC 9027). The assay is described as follows: Rate of microbicidal effect upon contact (CFU enumeration over time). As to conditions: Pseudomonas aeruginosa, 15 mm disc in approximately 10^8 CFU/ml, ciprofloxacin 1 μg/disc, read-out: killing percentage (inhibition of growth as percentage). As for the experimental part: (§5) Briefly, 15 millimeter (mm) discs of the microbicidal composite material were cut and placed into 24 well plates containing approximately 10^8 CFU/ml in Nutrient broth of S. aureus (ATCC 25923) & P. aeruginosa (ATCC 9027) respectively and incubated at 37±1° C. At intervals of 1, 5, 15, 30 and 60 minutes, broth samples were drawn and plated on nutrient agar plates and incubated for 24 hours at 37±1° C. for CFU enumeration. Two reference standards (ref-1, and ref-2) [Ref-1: Reference standard-I, includes a test material which is a cotton gauze material bonded with non siloxane based QAS and Ref-2: Reference standard-II includes a test material with active ingredient as silver Test Item refers to the ‘Microbicidal Composite Material’] and a disc containing 1 μg/disc ciprofloxacin. The results are tabulated in table 8 and table 9 as percentage recovery over time. Percentage survival was calculated as number of CFU/ml in test substance/number of CFU/ml in control substance. The killing percentage was calculated as 100-residual percentage.
(§6) FIG. 4 and FIG. 5 show the inhibition of growth as percentage in the Y-axis compared to the untreated control group.

Assay [13] deals with S. aureus (ATCC 25923). The description is as above. As to conditions: Staphylococcus aureus, 15 mm disc in approximately 10^8 CFU/ml, ciprofloxacin 1 μg/disc, read-out: killing percentage (inhibition of growth as percentage). As to the method: as §5, §6
The test system of assay [14] is C. albicans (ATCC 90028). Kind of assay: Zone of inhibition study (disc on agar plate). As to conditions: radius around 12 mm disc, 24 hours at 37±1° C., triplicates, Flucanazole 25 μg/Disc. As to the method:
as §4

The mark [15] stands for this setting: disc from ZOI assay in Nutrient broth for another 24 hours, CFU/ml versus control.

Take `O=C(O)c1cn(C2CC2)c2cc(N3CCNCC3)c(F)cc2c1=O` [Ciprofloxacin]: the inhibition at 1 µg/mL in [1] came to 91.4%; in assay [2], 88.2%; in assay [7], 89.8%; in assay [8] it was 93.1%. The Killing % turned out to be 99.9997% in assay [3] (100-residual percentage), 99.9902% in assay [4] (100-residual percentage), 99.9994% in assay [5] (100-residual percentage) and 99.9921% in assay [6] (100-residual percentage). The Residual % in [3] (setting [15]) is 0.000%; in [4] (setting [15]), 0.010%; in [5] (setting [15]), 0.001%; in [6] (setting [15]), 0.008%. In addition, the “ZOI (in mm) Mean” value came out at 9.50 mm in assay [9], 11.55 mm in assay [10] and 11.00 mm in [11]. The inhibition at 1 µg/disc in assay [12] (ATCC9027, 1 min, 1 minute) was determined as 0%; in [12] (ATCC9027, 5 min, 5 minutes), 32.4%; in [12] (ATCC9027, 0.25 h, 15 minutes) it was 87.4%; in assay [12] (ATCC9027, 0.5 h, 30 minutes) it was 98%; in [12] (ATCC9027, 1 h, 60 minutes), 99.9%; in assay [13] (ATCC25923, 1 min, 1 minute), 0%. For the same compound, the inhibition at 1 µg/disc turned out to be 32% in [13] (ATCC25923, 5 min, 5 minutes); 86.2% in [13] (ATCC25923, 0.25 h, 15 minutes); 79.1% in assay [13] (ATCC25923, 0.5 h, 30 minutes); 98.8% in [13] (ATCC25923, 1 h, 60 minutes).
For `OC(Cn1cncn1)(Cn1cncn1)c1ccc(F)cc1F` [Flucanazole], the “ZOI (in mm) Mean” value in [14] was found to be 3.60 mm.

A word on the inhibition: it is the change of the read-out against control, counted positive when it falls.
